Assay results published in patent US8959984B2, “Proteome-wide quantification of small molecule binding to cellular target proteins” (priority 2007, dated 2015).
Where two headings read alike, the source gives them in different places.

Legend:
CaMK2d (CAMK2D) = CaMK2d (CAMK2D) (Homo sapiens, UniProt Q13557); assay: binding to AX14596 beads (HeLa lysate, SILAC MS); set-up: endogenous in cells; host or cells: HeLa S3
Protocol: (§1) Differentially SILAC-encoded cell lysates were either incubated with the inhibitor beads displaying immobilized AX14596 or control resin devoid of ligand. In parallel, the supernatant from the first binding step was subjected to a second incubation with the AX14596 resin (FIG. 4). The resulting three elution fractions were combined, resolved by gel electrophoresis, proteolytically digested and the relative abundance of the retained proteins quantified. Proteins showing considerable binding to the control resin were identified as non-specific interactors and therefore not considered further. […] These target-specific ratios were similar in “label switch” experiments (FIGS. 6a and 6c). The binding equilibrium was determined in parallel control SILAC experiments as well as the excess of the immobilized compound over its cellular targets, the excess preferably being a molar excess (FIG. 7 and FIG. 8).
(§2) Cysteine carbamidomethylation was set as a fixed modification and N-acetyl protein and oxidized methionine were allowed as variable modifications. Spectra that were determined to result from heavy labeled peptides in the pre-search detection of SILAC partners by MaxQuant were searched with the fixed modifications Lys^4, Lys^8, Arg^6 and Arg^10, whereas MS/MS spectra for which no SILAC state could be assigned before database searching were searched with Lys^4, Lys^8, Arg^6 and Arg^10 as variable modifications. The mass tolerance was set to 5 ppm for monoisotopic precursor ions and to 0.5 Da for MS/MS peaks. The minimum peptide length was set to 6 amino acids and up to three missed cleavages and three isotopically labeled amino acids were permitted per peptide. The accepted false discovery rate (FDR) was 1% for the proteins and peptides. The cut-off for the posterior error probability (PEP) of peptides was set to 10%. Peptide PEPs were determined by generating Mascot score and peptide-length-dependent histograms for both the forward and the reverse hits and then deriving the probability of a false identification for a given top-scoring peptide using Bayes' theorem. The PEPs of peptides belonging to the same proteins were then multiplied. Each peptide sequence was considered only once with the lowest PEP determined in case of multiple sequencing of the same isotopic pattern or of peptide species with different SILAC, charge or modification states. Proteins were then sorted according to their products of their peptide PEPs and included until a FDR of 1% was reached according to the fraction of reverse proteins contained in the protein list. In addition to the FDR threshold applied for protein identification, proteins were only included when they were identified with at least two peptides (of which one was required to be unique for the protein) and quantified if at least on quantifiable SILAC pair was associated with them. Outliers were not removed as protein ratios were calculated as the median instead of the average of all peptide ratios. For peptides shared among different identified proteins, SILAC ratios were only considered for the ratio of the protein identified with the highest number of unique peptides. Protein ratios for the different in vitro association experiments were corrected for the initial SILAC pooling ratio, which was determined from the median of protein ratios in pooled SILAC-encoded cell extracts.

RPL27A = RPL27A (Homo sapiens, UniProt P46776); assay: binding to AX14596 beads (HeLa lysate, SILAC MS); set-up: endogenous in cells; host or cells: HeLa S3
Protocol: as §1, §2

RPL7A = RPL7A (Homo sapiens, UniProt P62424); assay: binding to AX14596 beads (HeLa lysate, SILAC MS); set-up: endogenous in cells; host or cells: HeLa S3
Protocol: as §1, §2

MAP3K6 = target: T1, MAP3K6 (Homo sapiens, UniProt O95382); assay: binding to immobilized V16742 (IVA1/IVA2, HeLa lysate, MS)
T1 construct: endogenous in cells; host or cells: HeLa S3
T1 sequence (O95382 1-1288): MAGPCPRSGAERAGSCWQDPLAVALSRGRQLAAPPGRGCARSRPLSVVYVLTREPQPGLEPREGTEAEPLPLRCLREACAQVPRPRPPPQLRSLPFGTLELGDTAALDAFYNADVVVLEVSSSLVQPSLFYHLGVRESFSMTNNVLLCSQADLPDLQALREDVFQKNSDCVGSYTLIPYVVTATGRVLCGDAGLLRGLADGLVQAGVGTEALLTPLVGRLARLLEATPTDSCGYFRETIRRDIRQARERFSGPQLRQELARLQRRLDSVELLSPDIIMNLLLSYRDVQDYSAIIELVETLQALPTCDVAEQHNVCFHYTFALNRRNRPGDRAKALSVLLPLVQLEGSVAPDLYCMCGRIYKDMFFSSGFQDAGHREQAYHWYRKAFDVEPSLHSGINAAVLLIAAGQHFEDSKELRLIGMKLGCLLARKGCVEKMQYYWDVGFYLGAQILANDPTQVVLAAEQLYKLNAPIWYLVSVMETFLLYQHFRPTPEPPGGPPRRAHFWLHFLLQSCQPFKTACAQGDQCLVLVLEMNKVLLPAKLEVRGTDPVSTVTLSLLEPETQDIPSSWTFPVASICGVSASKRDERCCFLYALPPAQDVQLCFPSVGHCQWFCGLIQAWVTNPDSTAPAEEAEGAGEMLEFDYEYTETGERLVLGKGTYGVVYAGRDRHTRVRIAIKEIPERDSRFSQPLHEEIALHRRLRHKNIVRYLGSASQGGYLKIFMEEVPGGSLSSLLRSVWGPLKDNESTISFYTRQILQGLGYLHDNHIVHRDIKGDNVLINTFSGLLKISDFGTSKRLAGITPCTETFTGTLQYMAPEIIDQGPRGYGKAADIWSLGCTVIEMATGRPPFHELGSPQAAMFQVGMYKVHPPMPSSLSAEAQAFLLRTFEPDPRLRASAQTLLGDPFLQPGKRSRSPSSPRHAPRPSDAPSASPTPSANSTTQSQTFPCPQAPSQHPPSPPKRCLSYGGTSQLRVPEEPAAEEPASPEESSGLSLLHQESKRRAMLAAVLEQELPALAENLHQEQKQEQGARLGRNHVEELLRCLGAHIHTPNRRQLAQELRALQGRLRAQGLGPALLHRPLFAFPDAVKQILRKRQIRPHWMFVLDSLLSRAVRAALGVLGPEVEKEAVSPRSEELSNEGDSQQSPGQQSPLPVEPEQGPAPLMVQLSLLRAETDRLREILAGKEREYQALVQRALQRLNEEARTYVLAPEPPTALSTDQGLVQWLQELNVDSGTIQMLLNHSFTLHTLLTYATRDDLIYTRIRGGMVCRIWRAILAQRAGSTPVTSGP

Sequence of CaMK2d (CAMK2D) (Q13557 whole entry): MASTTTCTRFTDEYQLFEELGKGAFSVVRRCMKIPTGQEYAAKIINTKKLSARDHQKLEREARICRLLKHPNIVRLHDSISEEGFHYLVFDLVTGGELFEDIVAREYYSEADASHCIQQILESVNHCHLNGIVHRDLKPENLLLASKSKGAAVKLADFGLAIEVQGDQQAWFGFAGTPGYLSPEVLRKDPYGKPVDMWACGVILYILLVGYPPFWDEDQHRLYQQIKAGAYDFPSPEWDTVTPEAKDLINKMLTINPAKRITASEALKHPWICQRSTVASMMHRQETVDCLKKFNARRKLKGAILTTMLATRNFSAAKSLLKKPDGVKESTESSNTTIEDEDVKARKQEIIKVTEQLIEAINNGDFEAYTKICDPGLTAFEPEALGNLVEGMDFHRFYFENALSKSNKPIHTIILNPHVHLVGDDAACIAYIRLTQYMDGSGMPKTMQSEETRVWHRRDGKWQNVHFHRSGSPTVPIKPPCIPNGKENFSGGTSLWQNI

With COc1cc2ncnc(Nc3ccc(F)c(Cl)c3)c2cc1OCCCN [AX14596] the Ki (CaMK2d (CAMK2D)) was 87.2 µM, the “r (3 mg/1 mg lysate)” value (CaMK2d (CAMK2D)) was 2.39 and the “r (5 h/2.5 h inc. time)” value (CaMK2d (CAMK2D)) was 1.13. For the same molecule, the “rAVERAGE (2. inc/1. inc)” value (CaMK2d (CAMK2D)) was 0.47, the “rAVERAGE (control/1. inc)” value (CaMK2d (CAMK2D)) was 0.07 and the Ki (RPL27A) was 2930 µM. The “r (3 mg/1 mg lysate)” value (RPL27A) was 1.75, the “r (5 h/2.5 h inc. time)” value (RPL27A) was 1.12 and the “rAVERAGE (2. inc/1. inc)” value (RPL27A) was 0.97. The “rAVERAGE (control/1. inc)” value (RPL27A) was 0.06, the Ki (RPL7A) was 2100 µM and the “r (3 mg/1 mg lysate)” value (RPL7A) was 5.23. The “rAVERAGE (2. inc/1. inc)” value (RPL7A) was 0.95 and the “rAVERAGE (control/1. inc)” value (RPL7A) was 0.17.
CC(C)n1c(=O)ccc2cnc(Nc3ccc(OCCN)cc3)nc21 [V16742] was tested, and the “Percent bound at various 16742 conc” value (MAP3K6; Experiment 1, 8.74 μM 16742) was 3.57%, the “Percent bound at various 16742 conc” value (MAP3K6; Experiment 1, 52 μM 16742) was 51.68% and the Kd (MAP3K6; Experiment 1, read-out: Kd) was 57.7 µM. The “Percent bound at various 16742 conc” value (MAP3K6; Experiment 2, 1.87 μM 16742) was 2.67%, the “Percent bound at various 16742 conc” value (MAP3K6; Experiment 2, 8.74 μM 16742) was 3.94% and the “Percent bound at various 16742 conc” value (MAP3K6; Experiment 2, 52 μM 16742) was 13.37%. For the same molecule, the Kd (MAP3K6; Experiment 2, read-out: Kd) was 326 µM and the Kd (MAP3K6; average of two experiments, read-out: Kd Avg) was 192 µM.
